# ChEMBL document CHEMBL4507297, “Data for DCP probe PF-04457845” (2021)
# Active and inactive are the calls of the source. The calls are words filed in the database; no cut-off is given here.
# Columns and labels:
# [1] = CI channel CEREP ligand profiling
# [2] = molecular target: Alpha-1A adrenergic receptor (Homo sapiens) (UniProt P35348); conditions: Compound concentration 10.0 uM
# [3] = molecular target: Kappa-type opioid receptor (Homo sapiens) (UniProt P41145); assay: kappa (KOP) CEREP ligand profiling; conditions: Compound concentration 10.0 uM
# [4] = molecular target: Phosphodiesterase 3 (Homo sapiens) (UniProt Q14432+Q13370); assay: PDE 3 (h) CEREP ligand profiling; type: protein assay; conditions: Compound concentration 10.0 uM
# [5] = molecular target: Neuronal acetylcholine receptor; alpha4/beta2 (Homo sapiens) (UniProt P17787+P43681); assay: N(neuronal) (α-BGTX-insensitive) (α4β2 nicotinic receptor) CEREP ligand profiling; conditions: Compound concentration 10.0 uM
# [6] = molecular target: Sodium/potassium-transporting ATPase (Homo sapiens) (UniProt P05023+P14415+P05026+P50993+P54709+P13637+Q13733+P54710); assay: ATPase (Na+/K+) CEREP ligand profiling; type: protein-complex assay; conditions: Compound concentration 10.0 uM
# [7] = GPCRScan assay: inhibition of GABA/PBR; set-up: species or system Rattus norvegicus; radioligand conc. used [nm] 0.3 – 2.0, parental cells brain tissue
# [8] = molecular target: Adrenergic receptor alpha-1 (Homo sapiens) (UniProt P35348+P25100+P35368); assay: alpha1 (non-selective) CEREP ligand profiling; type: protein assay; conditions: Compound concentration 10.0 uM
# [9] = molecular target: 5-hydroxytryptamine receptor 1B (Homo sapiens) (UniProt P28222); assay: 5-HT1B CEREP ligand profiling; conditions: Compound concentration 10.0 uM
# [10] = molecular target: 5-hydroxytryptamine receptor 2C (Homo sapiens, UniProt P28335); assay: GPCRScan assay: inhibition of 5-HT2C; set-up: radioligand conc. used [nm] 1.0 – 2.5, parental cells HEK T
# [11] = molecular target: T1, 5-hydroxytryptamine receptor 2B (Homo sapiens, UniProt P41595); assay: 5-HT2B (h) (agonist site) CEREP ligand profiling; conditions: Compound concentration 10.0 uM
# [12] = molecular target: Glutamate receptor ionotropic, AMPA (Rattus norvegicus) (UniProt P19491+P19492+P19493+P19490); assay: AMPA CEREP ligand profiling; type: protein-complex assay; conditions: Compound concentration 10.0 uM
# [13] = molecular target: T2, Muscarinic acetylcholine receptor M2 (Homo sapiens) (UniProt P08172); assay: M2 (h) CEREP ligand profiling; conditions: Compound concentration 10.0 uM
# T2 sequence (whole entry): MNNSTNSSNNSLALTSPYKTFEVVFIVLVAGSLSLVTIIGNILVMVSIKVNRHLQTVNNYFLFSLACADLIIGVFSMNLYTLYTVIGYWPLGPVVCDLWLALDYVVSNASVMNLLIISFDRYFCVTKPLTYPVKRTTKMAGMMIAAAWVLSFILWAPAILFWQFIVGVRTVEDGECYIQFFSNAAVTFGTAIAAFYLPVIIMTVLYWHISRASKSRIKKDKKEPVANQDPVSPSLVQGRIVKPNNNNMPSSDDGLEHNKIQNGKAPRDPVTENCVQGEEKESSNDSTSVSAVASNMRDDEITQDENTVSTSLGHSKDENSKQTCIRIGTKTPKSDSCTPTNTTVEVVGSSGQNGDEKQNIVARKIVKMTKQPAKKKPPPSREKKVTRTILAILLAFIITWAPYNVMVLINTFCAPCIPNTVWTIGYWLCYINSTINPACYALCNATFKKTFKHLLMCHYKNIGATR
# [14] = molecular target: Histamine H2 receptor (Homo sapiens) (UniProt P25021); assay: H2 (h) CEREP ligand profiling; conditions: Compound concentration 10.0 uM
# [15] = molecular target: Kappa-type opioid receptor (Homo sapiens) (UniProt P41145); conditions: Compound concentration 10.0 uM
# [16] = molecular target: Histamine H1 receptor (Homo sapiens) (UniProt P35367); assay: H1 (h) CEREP ligand profiling; conditions: Compound concentration 10.0 uM
# Cannabinoid receptor 1 = Cannabinoid receptor 1 (Homo sapiens, UniProt P21554); assay: CB1 (h) CEREP ligand profiling
# [17] = molecular target: T3, GABA-A receptor; anion channel (Homo sapiens) (UniProt P14867+P47870+P18507+P28472+P48169+Q99928+Q9UN88+P34903+O00591+O14764+Q8N1C3+P18505+P78334+P47869+P31644+Q16445); assay: BZD (central) CEREP ligand profiling; type: protein-complex assay; conditions: Compound concentration 10.0 uM
# [18] = molecular target: Muscarinic acetylcholine receptor M3 (Homo sapiens) (UniProt P20309); assay: M3 (h) CEREP ligand profiling; conditions: Compound concentration 10.0 uM
# [19] = molecular target: High affinity choline transporter 1 (Homo sapiens) (UniProt Q9GZV3); assay: Choline transporter (h) (CHT1) CEREP ligand profiling; conditions: Compound concentration 10.0 uM
# [20] = molecular target: Fatty-acid amide hydrolase 1 (Homo sapiens, UniProt O00519); assay: Glutamate dehydrogenase-coupled FAAH assay (preincubation time 60 min)
# [21] = molecular target: T3, GABA-A receptor; anion channel (Homo sapiens); assay: GABAA CEREP ligand profiling; type: protein-complex assay; conditions: Compound concentration 10.0 uM
# [22] = molecular target: Voltage-dependent N-type calcium channel subunit alpha-1B (Homo sapiens) (UniProt Q00975); assay: Ca2+ channel (N) CEREP ligand profiling; conditions: Compound concentration 10.0 uM
# [23] = molecular target: Sodium-dependent noradrenaline transporter (Homo sapiens) (UniProt P23975); assay: NE transporter (h) CEREP ligand profiling; conditions: Compound concentration 10.0 uM
# [24] = molecular target: Mitogen-activated protein kinase 14 (Homo sapiens) (UniProt Q16539); assay: p38alpha kinase (h) CEREP ligand profiling; conditions: Compound concentration 10.0 uM
# [25] = molecular target: Alpha-2B adrenergic receptor (Homo sapiens) (UniProt P18089); assay: alpha2B (h) CEREP ligand profiling; conditions: Compound concentration 10.0 uM
# [26] = Glycine (strychnine-insensitive) CEREP ligand profiling; conditions: Compound concentration 10.0 uM
# [27] = molecular target: Sodium- and chloride-dependent GABA transporter 1 (Homo sapiens) (UniProt P30531); assay: GABA transporter CEREP ligand profiling; conditions: Compound concentration 10.0 uM
# [28] = molecular target: Beta-1 adrenergic receptor (Homo sapiens) (UniProt P08588); assay: beta1 (h) CEREP ligand profiling; conditions: Compound concentration 10.0 uM
# [29] = molecular target: Glutamate [NMDA] receptor (Homo sapiens) (UniProt Q05586+Q12879+Q13224+O15399+O60391+Q14957+Q8TCU5); assay: NMDA CEREP ligand profiling; type: protein-complex assay; conditions: Compound concentration 10.0 uM
# [30] = molecular target: Phosphodiesterase 4 (Homo sapiens) (UniProt P27815+Q08499+Q07343+Q08493); assay: PDE 4 (h) CEREP ligand profiling; type: protein assay; conditions: Compound concentration 10.0 uM
# [31] = molecular target: 5-hydroxytryptamine receptor 2A (Homo sapiens, UniProt P28223); assay: 5-HT2A (h) (agonist site) CEREP ligand profiling
# Cannabinoid receptor 2 = Cannabinoid receptor 2 (Homo sapiens, UniProt P34972); assay: CB2 (h) CEREP ligand profiling
# [32] = molecular target: T1, 5-hydroxytryptamine receptor 2B; assay: GPCRScan assay: inhibition of 5-HT2B; set-up: radioligand conc. used [nm] 1.0 – 2.0, parental cells stable HEK
# [33] = molecular target: MAO-A (Amine oxidase [flavin-containing] A) (Homo sapiens, UniProt P21397); assay: MAO-A CEREP ligand profiling; conditions: compound concentration 10 uM
# [34] = molecular target: Glutamate receptor ionotropic, kainate 2 (Homo sapiens) (UniProt Q13002); assay: Kainate CEREP ligand profiling; conditions: Compound concentration 10.0 uM
# [35] = molecular target: GABA-A receptor; anion channel (Rattus norvegicus) (UniProt O09028+P15431+P18506+P18508+P19969+P20236+P23574+P23576+P28471+P28473+P30191+P62813+P63079+P63138+Q91ZM7+Q9ES14); conditions: Compound concentration 10.0 uM
# Sequence of 5-hydroxytryptamine receptor 2A (P28223 whole entry): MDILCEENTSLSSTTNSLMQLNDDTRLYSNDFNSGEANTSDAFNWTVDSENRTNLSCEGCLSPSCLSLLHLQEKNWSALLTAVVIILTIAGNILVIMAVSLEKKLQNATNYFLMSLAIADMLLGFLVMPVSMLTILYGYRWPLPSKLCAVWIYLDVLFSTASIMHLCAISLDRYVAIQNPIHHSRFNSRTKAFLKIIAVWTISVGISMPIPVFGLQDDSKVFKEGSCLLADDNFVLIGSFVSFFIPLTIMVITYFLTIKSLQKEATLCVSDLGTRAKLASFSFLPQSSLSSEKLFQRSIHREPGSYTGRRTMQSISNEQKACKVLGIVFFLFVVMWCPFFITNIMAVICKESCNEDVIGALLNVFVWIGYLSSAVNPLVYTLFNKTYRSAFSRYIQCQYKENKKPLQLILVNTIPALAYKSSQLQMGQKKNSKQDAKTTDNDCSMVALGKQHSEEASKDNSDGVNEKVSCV
# Sequence of Cannabinoid receptor 2 (P34972 whole entry): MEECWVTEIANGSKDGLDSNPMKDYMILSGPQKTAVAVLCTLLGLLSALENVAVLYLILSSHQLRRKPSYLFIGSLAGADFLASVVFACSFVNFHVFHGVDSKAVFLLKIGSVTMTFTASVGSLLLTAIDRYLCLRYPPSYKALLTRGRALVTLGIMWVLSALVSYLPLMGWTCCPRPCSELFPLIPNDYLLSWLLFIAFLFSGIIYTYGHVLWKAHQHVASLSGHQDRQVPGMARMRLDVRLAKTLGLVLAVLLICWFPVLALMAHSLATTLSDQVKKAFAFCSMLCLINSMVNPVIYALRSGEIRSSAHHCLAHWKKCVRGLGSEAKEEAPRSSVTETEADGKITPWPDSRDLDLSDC
# Sequence of Cannabinoid receptor 1 (P21554 whole entry): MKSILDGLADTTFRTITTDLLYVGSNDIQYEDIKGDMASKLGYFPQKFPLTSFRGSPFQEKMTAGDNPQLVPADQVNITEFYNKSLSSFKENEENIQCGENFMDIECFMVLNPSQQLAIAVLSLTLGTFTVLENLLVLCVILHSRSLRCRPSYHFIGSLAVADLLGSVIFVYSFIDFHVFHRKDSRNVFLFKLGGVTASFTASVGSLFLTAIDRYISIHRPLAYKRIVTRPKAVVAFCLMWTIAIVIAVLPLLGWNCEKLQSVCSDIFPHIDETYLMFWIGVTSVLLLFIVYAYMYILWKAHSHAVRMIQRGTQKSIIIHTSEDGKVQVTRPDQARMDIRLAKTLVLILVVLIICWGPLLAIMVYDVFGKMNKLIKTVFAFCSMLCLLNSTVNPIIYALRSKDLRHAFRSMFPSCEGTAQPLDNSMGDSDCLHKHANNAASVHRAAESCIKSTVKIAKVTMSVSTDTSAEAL
# Sequence of Kappa-type opioid receptor (Homo sapiens) (P41145 whole entry): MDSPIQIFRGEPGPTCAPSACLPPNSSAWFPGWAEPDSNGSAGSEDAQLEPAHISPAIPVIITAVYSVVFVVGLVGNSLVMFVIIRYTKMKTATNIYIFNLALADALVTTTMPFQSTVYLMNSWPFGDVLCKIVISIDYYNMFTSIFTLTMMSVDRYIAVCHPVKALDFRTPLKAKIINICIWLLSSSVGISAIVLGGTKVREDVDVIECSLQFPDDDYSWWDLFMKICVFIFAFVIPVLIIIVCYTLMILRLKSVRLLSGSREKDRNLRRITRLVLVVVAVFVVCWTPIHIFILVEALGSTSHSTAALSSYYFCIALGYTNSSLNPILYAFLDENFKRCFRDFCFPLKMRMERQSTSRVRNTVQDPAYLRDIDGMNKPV
# T1 sequence (P41595 whole entry): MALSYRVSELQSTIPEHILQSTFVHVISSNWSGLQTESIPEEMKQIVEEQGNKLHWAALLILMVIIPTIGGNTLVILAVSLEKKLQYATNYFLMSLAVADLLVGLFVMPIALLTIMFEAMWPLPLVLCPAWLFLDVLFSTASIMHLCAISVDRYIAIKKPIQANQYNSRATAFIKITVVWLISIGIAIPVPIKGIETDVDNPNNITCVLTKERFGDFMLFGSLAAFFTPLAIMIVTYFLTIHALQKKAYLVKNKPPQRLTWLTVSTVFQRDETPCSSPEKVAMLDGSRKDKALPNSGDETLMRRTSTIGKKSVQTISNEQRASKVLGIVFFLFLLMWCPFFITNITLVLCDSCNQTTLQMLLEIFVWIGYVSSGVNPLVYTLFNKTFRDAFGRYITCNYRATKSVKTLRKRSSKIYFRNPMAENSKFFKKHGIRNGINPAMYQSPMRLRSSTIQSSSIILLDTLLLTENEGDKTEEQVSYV
# Sequence of 5-hydroxytryptamine receptor 1B (Homo sapiens) (P28222 whole entry): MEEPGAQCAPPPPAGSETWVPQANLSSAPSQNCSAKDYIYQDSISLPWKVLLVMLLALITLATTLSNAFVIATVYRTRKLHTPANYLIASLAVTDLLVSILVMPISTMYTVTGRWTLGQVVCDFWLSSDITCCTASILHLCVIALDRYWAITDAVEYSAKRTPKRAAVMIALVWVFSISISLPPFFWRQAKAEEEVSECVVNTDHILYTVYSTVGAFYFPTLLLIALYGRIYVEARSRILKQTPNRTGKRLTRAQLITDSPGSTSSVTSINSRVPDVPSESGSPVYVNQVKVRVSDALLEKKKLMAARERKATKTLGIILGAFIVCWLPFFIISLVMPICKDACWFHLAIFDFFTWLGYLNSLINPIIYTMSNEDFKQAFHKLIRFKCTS
# Sequence of Mitogen-activated protein kinase 14 (Homo sapiens) (Q16539 whole entry): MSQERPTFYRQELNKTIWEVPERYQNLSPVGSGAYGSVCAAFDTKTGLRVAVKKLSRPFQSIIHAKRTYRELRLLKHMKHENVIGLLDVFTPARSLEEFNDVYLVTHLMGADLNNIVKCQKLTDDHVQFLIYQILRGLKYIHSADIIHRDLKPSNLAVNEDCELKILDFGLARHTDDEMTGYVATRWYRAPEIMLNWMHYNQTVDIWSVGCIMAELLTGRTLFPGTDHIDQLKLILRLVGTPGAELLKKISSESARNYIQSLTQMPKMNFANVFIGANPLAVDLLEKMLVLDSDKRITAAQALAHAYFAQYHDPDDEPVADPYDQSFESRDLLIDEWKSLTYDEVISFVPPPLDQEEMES
# Sequence of MAO-A (Amine oxidase [flavin-containing] A) (P21397 whole entry): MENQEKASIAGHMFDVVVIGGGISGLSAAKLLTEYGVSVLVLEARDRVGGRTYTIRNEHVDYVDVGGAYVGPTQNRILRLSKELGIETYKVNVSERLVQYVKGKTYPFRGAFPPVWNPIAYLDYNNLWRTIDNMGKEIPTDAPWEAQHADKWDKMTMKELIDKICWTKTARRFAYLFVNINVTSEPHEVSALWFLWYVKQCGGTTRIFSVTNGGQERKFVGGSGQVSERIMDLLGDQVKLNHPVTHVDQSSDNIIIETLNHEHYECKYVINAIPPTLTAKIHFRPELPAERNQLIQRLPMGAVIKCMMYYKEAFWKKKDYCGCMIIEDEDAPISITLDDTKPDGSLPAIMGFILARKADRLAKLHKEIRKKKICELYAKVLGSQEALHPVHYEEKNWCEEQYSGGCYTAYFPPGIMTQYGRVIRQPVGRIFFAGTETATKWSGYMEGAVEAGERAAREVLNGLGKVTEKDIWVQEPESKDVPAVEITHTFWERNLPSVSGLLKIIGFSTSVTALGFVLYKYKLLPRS
# Sequence of Fatty-acid amide hydrolase 1 (O00519 whole entry): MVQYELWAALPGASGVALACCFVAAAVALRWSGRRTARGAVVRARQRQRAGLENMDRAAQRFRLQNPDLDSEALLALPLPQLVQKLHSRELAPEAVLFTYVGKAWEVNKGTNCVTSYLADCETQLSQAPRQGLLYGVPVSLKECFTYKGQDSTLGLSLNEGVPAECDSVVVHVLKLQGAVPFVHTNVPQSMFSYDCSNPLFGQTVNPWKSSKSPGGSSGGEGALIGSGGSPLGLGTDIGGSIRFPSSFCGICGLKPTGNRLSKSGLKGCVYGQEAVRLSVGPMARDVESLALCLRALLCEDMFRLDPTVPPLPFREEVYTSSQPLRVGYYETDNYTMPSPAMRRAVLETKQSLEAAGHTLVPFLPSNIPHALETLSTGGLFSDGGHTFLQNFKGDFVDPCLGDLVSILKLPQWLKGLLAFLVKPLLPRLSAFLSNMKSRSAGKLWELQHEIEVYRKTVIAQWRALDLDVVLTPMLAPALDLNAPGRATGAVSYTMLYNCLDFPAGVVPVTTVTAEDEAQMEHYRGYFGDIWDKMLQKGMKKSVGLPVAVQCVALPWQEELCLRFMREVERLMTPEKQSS
# Sequence of 5-hydroxytryptamine receptor 2C (P28335 whole entry): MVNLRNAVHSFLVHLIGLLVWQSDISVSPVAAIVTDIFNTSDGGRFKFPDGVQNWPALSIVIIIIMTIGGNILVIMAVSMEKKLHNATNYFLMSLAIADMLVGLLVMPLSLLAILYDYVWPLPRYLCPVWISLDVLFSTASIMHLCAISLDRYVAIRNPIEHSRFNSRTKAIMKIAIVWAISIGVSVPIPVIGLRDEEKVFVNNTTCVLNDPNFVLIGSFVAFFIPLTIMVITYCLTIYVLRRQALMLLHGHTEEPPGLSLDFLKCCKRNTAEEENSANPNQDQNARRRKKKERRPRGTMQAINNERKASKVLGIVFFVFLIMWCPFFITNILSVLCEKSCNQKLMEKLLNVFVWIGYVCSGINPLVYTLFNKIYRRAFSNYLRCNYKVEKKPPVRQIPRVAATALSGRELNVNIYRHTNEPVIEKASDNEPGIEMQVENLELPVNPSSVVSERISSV
# Sequence of Alpha-1A adrenergic receptor (Homo sapiens) (P35348 whole entry): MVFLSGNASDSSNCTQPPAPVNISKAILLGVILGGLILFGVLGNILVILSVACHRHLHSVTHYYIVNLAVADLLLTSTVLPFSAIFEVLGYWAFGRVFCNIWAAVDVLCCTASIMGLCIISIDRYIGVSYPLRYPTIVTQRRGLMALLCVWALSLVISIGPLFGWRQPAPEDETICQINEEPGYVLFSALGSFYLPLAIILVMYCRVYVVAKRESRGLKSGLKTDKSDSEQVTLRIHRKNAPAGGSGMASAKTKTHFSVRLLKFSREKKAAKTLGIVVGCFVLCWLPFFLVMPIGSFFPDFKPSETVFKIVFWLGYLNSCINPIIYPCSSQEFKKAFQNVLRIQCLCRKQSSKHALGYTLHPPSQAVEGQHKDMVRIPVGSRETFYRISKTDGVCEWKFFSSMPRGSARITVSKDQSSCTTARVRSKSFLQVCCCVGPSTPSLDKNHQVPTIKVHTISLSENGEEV
smiles,measurement,setting,value
O=C(Nc1cccnn1)N1CCC(=Cc2cccc(Oc3ccc(C(F)(F)F)cn3)c2)CC1,Ki,[1],3000 nM
same,inhibition,[1]; Compound concentration 10.0 uM,78%
same,inhibition,[2],10.3%
same,inhibition,[3],0%
same,inhibition,[4],10%
same,inhibition,[5],8%
same,inhibition,[6],-2%
same,Ki,[7],1140 nM
same,pKi,[7],5.94
same,inhibition,[8],-2%
same,inhibition,[9],-3%
same,Ki,[10],1660 nM
same,inhibition,[11],35%
same,inhibition,[12],-8%
same,inhibition,[13],15%
same,inhibition,[14],-6%
same,inhibition,[15],30.5%
same,inhibition,[16],-1%
same,Ki,Cannabinoid receptor 1,14 µM
same,inhibition,Cannabinoid receptor 1; Compound concentration 10.0 uM,55%
same,inhibition,[17],15%
same,inhibition,[18],11%
same,inhibition,[19],18%
same,IC50,[20],7.4 nM (active)
same,inhibition,[21],-4%
same,inhibition,[22],-5%
same,inhibition,[23],-5%
same,inhibition,[24],1%
same,inhibition,[25],4%
same,inhibition,[26],-2%
same,inhibition,[27],-1%
same,inhibition,[28],1%
same,inhibition,[29],-3%
same,inhibition,[30],18%
same,Ki,[31],1600 nM
same,inhibition,[31]; Compound concentration 10.0 uM,57%
same,Ki,Cannabinoid receptor 2,5.1 µM
same,inhibition,Cannabinoid receptor 2; Compound concentration 10.0 uM,55%
same,Ki,[32],1340 nM
same,inhibition at 10 µM,[33],13% (not active)
same,inhibition,[34],2%
O=C(Nc1cccnn1)N1CC(C/C=C/c2cncc(Oc3ccc(C(F)(F)F)cn3)n2)C1,inhibition,[35],23.7%
